Data published in ChEMBL document CHEMBL1201862, “PubChem BioAssay data set” (2004).
Active and inactive are the calls of the source.

Key:
[1] = M. tuberculosis growth inhibition, HTS (AID 449762); format: functional
[2] = microbe, parasite or virus in culture; format: functional; details: Mycobacterium tuberculosis
[3] = system: HEK293; test: inhibitors of LMP1-driven NF-kB reporter, dose response, cell-based, HEK293, luciferase, cherry-pick (AID 588343); format: functional; details: Homo sapiens
[4] = biological target: Voltage-gated inwardly rectifying potassium channel KCNH2 (Homo sapiens, UniProt Q12809); details: Potency;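 further: confirmatory quantitative high-throughput screen measuring inhibition of hERG channel activity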
[5] = HeLa 4N DNA content increase, dose response, cell-based, IC50 (AID 1117351); format: functional
[6] = HeLa 2N DNA content increase, dose response, cell-based, IC50 (AID 1117349); format: functional
[7] = biological target: Prothrombin (Homo sapiens, UniProt P00734); test: Thrombin 1536 HTS Dose Response Confirmation. [Related pubchem assays: 1046 (Thrombin 1536 HTS; hits were confirmed in this assay)]; format: functional
[8] = biological target: Sphingosine 1-phosphate receptor 2 (Homo sapiens, UniProt O95136); test: Dose Response Cell Based Assay for Agonists of the S1P2 Receptor. [Related pubchem assays: 729, 736, 843 ]; format: functional
[9] = biological target: Ephrin type-A receptor 4 (Mus musculus, UniProt Q03137); test: inhibitors of EphA4 binding to KYL peptide, primary screen, biochemical, colorimetric, mouse EphA4 (AID 689); format: functional
[10] = biological target: T1, Heat shock factor protein 1 (Mus musculus, UniProt P38532); test: HSF1 potentiators in luciferase reporter cells, confirmation, cell-based, NIH3T3, luminescence, dose retest (AID 435004); format: functional;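 further: stress induced by proteasome inhibitor MG132 added 30 min after compound; luciferase reporter driven by HSF1 response element in NIH3T3 cells; actives raise luminescence as potentiators of the MG132 stress response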
T1 sequence (P38532 whole entry): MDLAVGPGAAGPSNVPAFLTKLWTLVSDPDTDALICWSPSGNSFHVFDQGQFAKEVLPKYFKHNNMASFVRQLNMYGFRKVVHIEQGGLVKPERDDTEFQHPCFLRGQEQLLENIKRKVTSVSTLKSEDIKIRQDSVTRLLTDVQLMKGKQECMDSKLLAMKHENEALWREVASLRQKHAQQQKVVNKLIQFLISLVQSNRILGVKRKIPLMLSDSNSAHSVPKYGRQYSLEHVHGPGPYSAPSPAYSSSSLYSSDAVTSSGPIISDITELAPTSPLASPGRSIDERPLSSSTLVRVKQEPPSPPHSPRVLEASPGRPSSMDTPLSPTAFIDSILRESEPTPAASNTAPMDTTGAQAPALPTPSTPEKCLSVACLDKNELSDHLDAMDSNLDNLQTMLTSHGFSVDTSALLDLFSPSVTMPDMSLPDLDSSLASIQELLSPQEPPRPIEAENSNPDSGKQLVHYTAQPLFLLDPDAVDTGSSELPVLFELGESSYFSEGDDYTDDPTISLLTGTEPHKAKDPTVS

[11] = biological target: Induced myeloid leukemia cell differentiation protein Mcl-1 (Homo sapiens, UniProt Q07820); format: functional
[12] = HEp-2 cell cytotoxicity, dose response, cytotoxicity control for RSV inhibitor project, HTS (AID 2410); format: functional; details: human respiratory syncytial virus
[13] = THP-1 cell cytotoxicity, dose response, cytotoxicity control for non-replicating M. tuberculosis project (AID 489025); format: functional
[14] = P. falciparum Dd2 growth inhibitors, dose response, SYBR Green, dry powder samples (AID 1159566); format: functional, cell-based;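 further: potency for growth inhibition with lower SYBR green DNA signal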
[15] = P. falciparum Dd2 growth inhibitors, dose response, SYBR Green, cherry-picked samples (AID 1159567); format: functional, cell-based
[16] = P. falciparum 3D7-ScDHODH growth inhibitors, dose response, SYBR Green, dry powder samples (AID 1159570); format: functional, cell-based;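 further: parasite growth measured after 72 hours of compound exposure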
[17] = HepG2 cell cytotoxicity, dose response, cytotoxicity control, plate reader, dry powder samples (AID 1159569); format: functional, cell-based;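 further: inhibitor potency with signal falling toward the positive control level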
[18] = P. falciparum ATP4 D1247Y mutant growth inhibitors, dose response, NITD609-resistant line, SYBR Green, dry powder (AID 1159571); format: functional, cell-based;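 further: parasites synchronized at ring stage by sorbitol before testing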
[19] = biological target: T2, Caspase-3 (Homo sapiens, UniProt P42574); format: functional;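 further: Dose-response selectivity test against caspase-3 for candidate inhibitors of sentrin-specific proteases (SENPs)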
T2 sequence (P42574 whole entry): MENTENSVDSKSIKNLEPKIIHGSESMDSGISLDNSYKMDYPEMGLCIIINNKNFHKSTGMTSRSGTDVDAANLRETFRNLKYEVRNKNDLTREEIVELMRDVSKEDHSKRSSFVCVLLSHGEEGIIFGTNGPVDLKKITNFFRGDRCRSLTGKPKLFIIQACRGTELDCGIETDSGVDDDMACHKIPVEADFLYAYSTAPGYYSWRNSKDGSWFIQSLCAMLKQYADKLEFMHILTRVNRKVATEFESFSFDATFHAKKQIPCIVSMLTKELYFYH

[20] = biological target: T3, Oxysterols receptor LXR-beta (Homo sapiens, UniProt P55055); test: LXR agonists, Gal4 luciferase reporter, dose response, counter-screen for ssDAF-12 agonist project, cell-based, luminescence, HEK293, S. stercoralis campaign (AID 720737); format: functional; details: read-out: IC50 (the source's name)
T3 sequence (P55055 whole entry): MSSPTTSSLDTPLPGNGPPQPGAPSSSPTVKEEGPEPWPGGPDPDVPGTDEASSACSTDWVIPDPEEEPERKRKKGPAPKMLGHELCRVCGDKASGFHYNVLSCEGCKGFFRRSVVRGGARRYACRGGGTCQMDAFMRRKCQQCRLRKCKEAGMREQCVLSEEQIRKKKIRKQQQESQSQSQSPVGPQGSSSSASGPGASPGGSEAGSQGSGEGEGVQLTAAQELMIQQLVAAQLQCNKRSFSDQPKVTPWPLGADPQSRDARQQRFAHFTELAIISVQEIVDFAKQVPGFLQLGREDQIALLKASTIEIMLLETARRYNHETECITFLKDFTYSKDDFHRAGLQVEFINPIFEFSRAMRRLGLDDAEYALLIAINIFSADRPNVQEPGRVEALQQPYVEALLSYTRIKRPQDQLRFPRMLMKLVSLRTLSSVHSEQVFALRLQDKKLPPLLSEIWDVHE

[21] = biological target: T4, Sentrin-specific protease 7 (Homo sapiens, UniProt Q9BQF6); format: functional;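 further: Luminescence-based dose-response confirmation of ultra-high-throughput screening hits, measuring inhibition of SENP7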
T4 sequence (Q9BQF6 whole entry): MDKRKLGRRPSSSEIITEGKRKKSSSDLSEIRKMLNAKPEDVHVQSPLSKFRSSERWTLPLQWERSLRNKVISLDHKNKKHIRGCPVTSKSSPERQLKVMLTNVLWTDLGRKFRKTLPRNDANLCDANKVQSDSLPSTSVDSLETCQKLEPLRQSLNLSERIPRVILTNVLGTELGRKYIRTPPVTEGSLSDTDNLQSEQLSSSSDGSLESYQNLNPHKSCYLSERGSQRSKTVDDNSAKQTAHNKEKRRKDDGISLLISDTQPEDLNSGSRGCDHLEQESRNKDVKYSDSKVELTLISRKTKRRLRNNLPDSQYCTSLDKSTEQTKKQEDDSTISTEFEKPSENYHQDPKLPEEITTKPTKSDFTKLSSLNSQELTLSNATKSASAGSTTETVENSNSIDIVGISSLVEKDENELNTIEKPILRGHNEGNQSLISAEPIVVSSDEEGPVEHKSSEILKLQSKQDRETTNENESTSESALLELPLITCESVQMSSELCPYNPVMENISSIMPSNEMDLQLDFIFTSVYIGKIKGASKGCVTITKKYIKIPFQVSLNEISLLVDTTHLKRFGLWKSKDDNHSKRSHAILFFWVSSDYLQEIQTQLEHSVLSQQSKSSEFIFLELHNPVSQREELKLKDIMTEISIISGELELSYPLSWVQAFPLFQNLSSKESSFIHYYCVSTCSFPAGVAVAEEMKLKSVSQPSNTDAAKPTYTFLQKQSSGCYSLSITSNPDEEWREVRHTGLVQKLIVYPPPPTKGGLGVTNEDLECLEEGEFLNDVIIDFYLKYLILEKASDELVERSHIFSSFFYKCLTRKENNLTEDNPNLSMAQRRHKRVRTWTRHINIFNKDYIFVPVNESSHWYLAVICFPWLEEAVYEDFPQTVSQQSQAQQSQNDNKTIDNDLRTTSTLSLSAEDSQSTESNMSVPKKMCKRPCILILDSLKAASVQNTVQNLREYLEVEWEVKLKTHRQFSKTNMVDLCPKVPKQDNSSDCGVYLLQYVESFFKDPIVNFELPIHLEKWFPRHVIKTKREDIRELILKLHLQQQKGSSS

[22] = biological target: T5, Sentrin-specific protease 6 (Homo sapiens, UniProt Q9GZR1); format: functional;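 further: Luminescence-based dose-response confirmatory assay of SENP6 inhibition, following up an ultra-high-throughput screen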
T5 sequence (Q9GZR1 whole entry): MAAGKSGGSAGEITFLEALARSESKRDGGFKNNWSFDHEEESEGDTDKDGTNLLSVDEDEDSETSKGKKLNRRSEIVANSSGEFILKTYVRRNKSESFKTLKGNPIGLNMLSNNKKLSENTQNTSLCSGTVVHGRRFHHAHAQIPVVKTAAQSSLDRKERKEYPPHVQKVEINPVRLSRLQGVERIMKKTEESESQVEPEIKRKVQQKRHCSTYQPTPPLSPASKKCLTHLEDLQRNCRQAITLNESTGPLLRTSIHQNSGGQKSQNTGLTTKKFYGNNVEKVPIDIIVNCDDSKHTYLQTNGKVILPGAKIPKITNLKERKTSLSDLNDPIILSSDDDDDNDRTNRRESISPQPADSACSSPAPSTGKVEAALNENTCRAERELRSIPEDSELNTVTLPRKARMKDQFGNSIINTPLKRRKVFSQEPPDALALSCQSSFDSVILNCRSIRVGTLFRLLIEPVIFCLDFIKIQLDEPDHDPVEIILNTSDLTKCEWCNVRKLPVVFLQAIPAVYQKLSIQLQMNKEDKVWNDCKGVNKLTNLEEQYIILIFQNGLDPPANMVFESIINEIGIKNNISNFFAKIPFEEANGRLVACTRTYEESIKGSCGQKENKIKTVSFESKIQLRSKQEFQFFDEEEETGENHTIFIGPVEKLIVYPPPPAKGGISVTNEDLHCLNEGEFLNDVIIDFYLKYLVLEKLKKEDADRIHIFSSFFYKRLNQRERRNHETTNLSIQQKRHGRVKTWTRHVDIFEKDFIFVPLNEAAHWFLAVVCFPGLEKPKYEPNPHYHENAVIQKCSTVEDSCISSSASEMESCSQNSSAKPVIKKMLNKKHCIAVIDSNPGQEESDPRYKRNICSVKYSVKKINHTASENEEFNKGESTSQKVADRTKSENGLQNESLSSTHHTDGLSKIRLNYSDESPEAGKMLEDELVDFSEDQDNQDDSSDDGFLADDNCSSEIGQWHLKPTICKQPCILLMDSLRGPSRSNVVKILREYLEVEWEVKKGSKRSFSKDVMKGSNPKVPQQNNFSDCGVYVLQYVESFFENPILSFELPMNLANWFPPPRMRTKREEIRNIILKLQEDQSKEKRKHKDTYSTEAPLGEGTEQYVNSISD

[23] = Luminescence-based cell-based high throughput dose response assay to identify activators of the DAF-12 from the parasite S. stercoralis (ssDAF-12).; format: functional
[24] = biological target: T6, Sentrin-specific protease 8 (Homo sapiens, UniProt Q96LD8); format: functional;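 further: luminescence read-out of SENP8 inhibition, dose-response confirmation following an ultra-high-throughput screen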
T6 sequence (Q96LD8 whole entry): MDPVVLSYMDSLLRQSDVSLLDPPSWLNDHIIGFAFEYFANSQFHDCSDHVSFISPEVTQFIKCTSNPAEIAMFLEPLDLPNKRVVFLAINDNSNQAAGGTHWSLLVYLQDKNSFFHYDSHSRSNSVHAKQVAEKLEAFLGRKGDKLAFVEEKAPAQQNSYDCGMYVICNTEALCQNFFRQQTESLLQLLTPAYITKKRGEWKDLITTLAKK

[25] = biological target: Paired box protein Pax-8 (Homo sapiens, UniProt Q06710); test: inhibitors of PAX8-driven TPO luciferase reporter, dose response, RMG-I cells, cherry-pick (AID 687027); format: functional, cell-based;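 further: luciferase reporter driven by Pax8 target thyroperoxidase promoter measured by SteadyGlo luminescence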
Paired box protein Pax-8, sequence (Q06710 whole entry): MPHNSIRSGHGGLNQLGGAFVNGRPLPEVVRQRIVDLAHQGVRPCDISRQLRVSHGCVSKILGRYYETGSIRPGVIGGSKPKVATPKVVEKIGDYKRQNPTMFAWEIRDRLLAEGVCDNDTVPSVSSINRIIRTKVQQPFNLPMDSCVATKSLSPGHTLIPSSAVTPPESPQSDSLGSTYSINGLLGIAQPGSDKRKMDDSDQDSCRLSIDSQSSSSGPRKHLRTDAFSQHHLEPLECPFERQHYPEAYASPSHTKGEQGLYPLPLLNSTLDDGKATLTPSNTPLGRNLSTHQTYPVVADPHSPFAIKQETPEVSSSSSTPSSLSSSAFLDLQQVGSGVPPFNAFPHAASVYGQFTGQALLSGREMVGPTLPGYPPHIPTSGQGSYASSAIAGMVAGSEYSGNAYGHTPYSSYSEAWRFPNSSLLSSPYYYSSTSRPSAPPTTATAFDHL

Sphingosine 1-phosphate receptor 2, sequence (O95136 whole entry): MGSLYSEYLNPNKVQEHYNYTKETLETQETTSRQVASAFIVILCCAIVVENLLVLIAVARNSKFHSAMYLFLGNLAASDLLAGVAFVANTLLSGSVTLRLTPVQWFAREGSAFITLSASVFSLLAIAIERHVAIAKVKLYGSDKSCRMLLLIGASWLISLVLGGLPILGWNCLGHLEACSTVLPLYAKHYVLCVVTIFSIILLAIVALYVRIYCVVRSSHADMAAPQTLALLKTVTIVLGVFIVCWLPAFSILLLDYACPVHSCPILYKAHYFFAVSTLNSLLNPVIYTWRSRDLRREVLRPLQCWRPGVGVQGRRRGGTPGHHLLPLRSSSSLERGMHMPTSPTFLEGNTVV
Ephrin type-A receptor 4, sequence (Q03137 whole entry): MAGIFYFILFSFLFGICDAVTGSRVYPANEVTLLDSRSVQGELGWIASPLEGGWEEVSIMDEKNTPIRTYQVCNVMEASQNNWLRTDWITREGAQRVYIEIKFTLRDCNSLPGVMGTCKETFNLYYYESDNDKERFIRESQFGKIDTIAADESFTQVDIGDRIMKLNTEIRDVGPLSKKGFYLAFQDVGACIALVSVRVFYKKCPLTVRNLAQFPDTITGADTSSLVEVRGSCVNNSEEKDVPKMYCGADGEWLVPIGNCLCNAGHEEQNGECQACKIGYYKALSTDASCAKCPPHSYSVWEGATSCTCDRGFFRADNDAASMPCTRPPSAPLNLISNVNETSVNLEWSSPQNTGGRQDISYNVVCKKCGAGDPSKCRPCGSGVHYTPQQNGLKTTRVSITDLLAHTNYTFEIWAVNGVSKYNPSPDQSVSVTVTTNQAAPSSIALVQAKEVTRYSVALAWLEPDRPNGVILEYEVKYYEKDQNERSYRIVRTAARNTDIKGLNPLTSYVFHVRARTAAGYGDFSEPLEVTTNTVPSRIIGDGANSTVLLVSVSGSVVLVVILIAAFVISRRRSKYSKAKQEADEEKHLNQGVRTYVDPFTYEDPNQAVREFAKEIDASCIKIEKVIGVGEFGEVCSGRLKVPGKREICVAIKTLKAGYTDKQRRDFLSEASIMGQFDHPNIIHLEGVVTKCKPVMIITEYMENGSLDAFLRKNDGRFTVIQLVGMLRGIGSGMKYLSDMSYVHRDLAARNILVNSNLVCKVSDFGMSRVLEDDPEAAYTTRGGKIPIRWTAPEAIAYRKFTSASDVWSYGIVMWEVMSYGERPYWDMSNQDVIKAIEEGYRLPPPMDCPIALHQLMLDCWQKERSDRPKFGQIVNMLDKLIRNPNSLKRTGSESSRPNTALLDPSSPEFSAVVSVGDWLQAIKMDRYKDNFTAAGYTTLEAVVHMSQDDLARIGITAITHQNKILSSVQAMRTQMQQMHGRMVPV
Induced myeloid leukemia cell differentiation protein Mcl-1, sequence (Q07820 whole entry): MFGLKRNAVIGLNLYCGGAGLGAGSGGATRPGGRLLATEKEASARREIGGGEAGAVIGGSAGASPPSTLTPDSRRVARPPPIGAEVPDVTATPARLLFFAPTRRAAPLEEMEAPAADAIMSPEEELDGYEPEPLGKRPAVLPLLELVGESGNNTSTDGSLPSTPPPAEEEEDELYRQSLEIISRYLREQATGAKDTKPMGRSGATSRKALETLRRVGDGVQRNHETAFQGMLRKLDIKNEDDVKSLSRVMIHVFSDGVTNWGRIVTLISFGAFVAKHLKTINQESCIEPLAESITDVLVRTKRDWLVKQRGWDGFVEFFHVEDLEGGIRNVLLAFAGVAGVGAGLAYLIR
Voltage-gated inwardly rectifying potassium channel KCNH2, sequence (Q12809 whole entry): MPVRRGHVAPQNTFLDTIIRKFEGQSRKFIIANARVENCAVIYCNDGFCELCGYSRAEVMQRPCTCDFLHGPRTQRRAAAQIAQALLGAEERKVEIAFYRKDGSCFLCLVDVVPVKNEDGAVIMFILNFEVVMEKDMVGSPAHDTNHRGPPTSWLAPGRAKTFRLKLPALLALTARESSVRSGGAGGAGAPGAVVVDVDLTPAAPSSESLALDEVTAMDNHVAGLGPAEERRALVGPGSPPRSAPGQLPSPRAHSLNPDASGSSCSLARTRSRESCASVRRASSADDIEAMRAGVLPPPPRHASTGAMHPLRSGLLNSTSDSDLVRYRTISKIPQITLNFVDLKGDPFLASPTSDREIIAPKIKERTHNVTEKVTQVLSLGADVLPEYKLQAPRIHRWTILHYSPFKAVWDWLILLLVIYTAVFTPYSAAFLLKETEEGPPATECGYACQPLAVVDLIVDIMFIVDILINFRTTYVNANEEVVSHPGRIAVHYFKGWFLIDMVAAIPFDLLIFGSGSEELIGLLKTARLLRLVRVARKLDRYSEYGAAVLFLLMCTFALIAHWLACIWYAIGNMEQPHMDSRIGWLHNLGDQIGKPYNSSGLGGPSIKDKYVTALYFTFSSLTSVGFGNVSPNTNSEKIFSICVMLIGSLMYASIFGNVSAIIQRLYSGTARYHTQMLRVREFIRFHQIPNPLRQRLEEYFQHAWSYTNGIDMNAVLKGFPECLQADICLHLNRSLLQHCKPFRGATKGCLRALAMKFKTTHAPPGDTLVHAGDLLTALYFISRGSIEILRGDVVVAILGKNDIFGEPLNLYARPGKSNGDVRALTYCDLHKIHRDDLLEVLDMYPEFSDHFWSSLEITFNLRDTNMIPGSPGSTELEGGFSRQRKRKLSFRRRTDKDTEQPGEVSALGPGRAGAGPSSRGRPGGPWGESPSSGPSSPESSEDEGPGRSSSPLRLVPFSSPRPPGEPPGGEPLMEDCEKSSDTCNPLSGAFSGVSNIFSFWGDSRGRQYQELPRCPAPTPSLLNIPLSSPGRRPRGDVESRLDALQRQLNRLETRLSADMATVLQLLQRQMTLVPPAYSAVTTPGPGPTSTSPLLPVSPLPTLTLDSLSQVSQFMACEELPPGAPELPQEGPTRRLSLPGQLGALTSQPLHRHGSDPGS

In the case of `COc1ccc(-c2c(-c3cc(OC)cc(OC)c3)n(C)c3ccc(-c4cc[nH]n4)cc23)cc1`, the IC50 [1] is reported as > 100 µM (active) and the CC50 [2] is reported as > 40 µM (active).

In the case of `N[C@@H](Cc1ccc(N(CCCl)CCCl)cc1)C(=O)O`, the AC50 [3] is reported as 10.3 µM (active), the AC50 [4] is reported as 15.8 µM (inconclusive) and the IC50 [5] is reported as 5.36 µM (inactive). The IC50 [6] was 2.26 µM (active).

In the case of `Cn1c(SCC(=O)c2ccc3c(c2)NC(=O)CO3)nc2ccccc21`, the IC50 [7] is reported as > 50 µM (not active).

For `COc1ccccc1C(=O)n1nc(-c2ccco2)nc1SC`, the IC50 [7] was 0.001 µM (active).

With `CCOC(=O)c1cc2ccc(OC)c(OC)c2c(=O)s1` the EC50 [8] was > 50 µM (not active).

In the case of `CCN(CCO)c1nc(SC)nc2c1sc1nc(-c3ccco3)c3c(c12)CCC3`, the IC50 [9] is reported as 24.1 µM (active), the EC50 [10] is reported as 66.5 µM (active) and the IC50 [11] is reported as 1.85 µM (active).

In the case of `CCOC(=O)c1ccc(/N=C2\SC(C(=O)Nc3ccc(C(=O)O)cc3)CC(=O)N2Cc2cccs2)cc1` (configuration not stated), the IC50 [1] is reported as > 100 µM (active), the CC50 [12] is reported as 13 µM (active) and the CC50 [13] is reported as > 40 µM (active).

With `Cc1ccc(OC(=O)N(C)C[C@H]2OCc3ccccc3-c3c(n(C)c4ccccc34)C(=O)N([C@H](C)CO)C[C@@H]2C)cc1` the AC50 [14] was 1.71 µM (active), the AC50 [15] was 2.53 µM (active) and the AC50 [16] was 1.72 µM (active). For the same compound, the AC50 [17] was 22.9 µM (active) and the AC50 [18] was 1.96 µM (active).

In the case of `Cc1ccc(NC(=O)c2oc3ccccc3c2C)nc1`, the IC50 [19] is reported as 25.8 µM (active), the EC50 [20] is reported as > 67.5 µM (inactive) and the IC50 [21] is reported as 7.35 µM (active). For the same compound, the IC50 [22] was 85.3 µM (active), the IC50 [23] was > 67.5 µM (inactive) and the IC50 [24] was > 100 µM (inactive).

In the case of `C[C@H](CO)N1C[C@H](C)[C@H](CN(C)S(=O)(=O)c2cccc(F)c2)OCc2ccccc2-c2c(n(C)c3ccccc23)C1=O`, the AC50 [14] is reported as 0.722 µM (active), the AC50 [15] is reported as 2.07 µM (active) and the AC50 [25] is reported as 11.3 µM (active). The AC50 [16] was 1.6 µM (active), the AC50 [17] was 31.5 µM (active) and the AC50 [18] was 0.62 µM (active).
